Legend:
[1] = In vitro cytotoxicity by MTT assay, HEK 293; type: cell-based, human; settings: human, HEK 293 cells; for cytotoxicity at 72 h, 0.005 µM / cytotoxicity at 72 h, 0.015 µM / cytotoxicity at 72 h, 0.045 µM / cytotoxicity at 72 h, 0.13 µM / cytotoxicity at 72 h, 0.41 µM / cytotoxicity at 72 h, 1.23 µM / cytotoxicity at 72 h, 3.7 µM / cytotoxicity at 72 h, 11.11 µM / cytotoxicity at 72 h, 33.33 µM / cytotoxicity at 72 h, 100 µM: read-out: % cytotoxicity (100 − % cell survival) of HEK 293 cell line
How it was run: (§1)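 Cells seeded at ~10,000/well in RPMI-1640 with 10 % newborn calf serum, grown 24 h, then exposed to compounds for 72 h at 37 °C, 5 % CO2. Viability read by MTT (4 h), formazan dissolved in propanol, absorbance at 490 nm.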

[2] = test system: BT474 (breast cancer cell line); assay: In vitro cytotoxicity by MTT assay, BT474; type: cell-based; settings: Homo sapiens, 72 h, read-out: % cytotoxicity (100 − % cell survival) of BT474 cell line; for cytotoxicity at 0.005 µM: BT-474, 0.005 μM; for cytotoxicity at 0.015 µM: BT-474, 0.015 μM; for cytotoxicity at 0.045 µM: BT-474, 0.045 μM; for cytotoxicity at 0.13 µM: BT-474, 0.13 μM; for cytotoxicity at 0.41 µM: BT-474, 0.41 μM; for cytotoxicity at 1.23 µM: BT-474, 1.23 μM; for cytotoxicity at 3.7 µM: BT-474, 3.7 μM; for cytotoxicity at 11.11 µM: BT-474, 11.11 μM; for cytotoxicity at 33.33 µM: BT-474, 33.33 μM; for cytotoxicity at 100 µM: BT-474, 100 μM
How it was run: as §1

[3] = In vitro cytotoxicity by MTT assay, NCI-H226; type: cell-based; settings: human, NCI-H226 lung cancer cells, 0.015 μM, read-out: % Cytotoxicity (100 − % cell survival) of NCI-H226 cell line
How it was run: as §1

[4] = test system: NCI-H226 (lung cancer cell line); assay: In vitro cytotoxicity by MTT assay, NCI-H226; type: cell-based; settings: Homo sapiens, 72 h; for cytotoxicity at 0.005 µM: NCI-H226, 0.005 μM; for cytotoxicity at 0.005 µM / cytotoxicity at 0.045 µM / cytotoxicity at 0.13 µM / cytotoxicity at 0.41 µM / cytotoxicity at 1.23 µM / cytotoxicity at 3.7 µM / cytotoxicity at 11.11 µM / cytotoxicity at 33.33 µM / cytotoxicity at 100 µM: read-out: % Cytotoxicity (100 − % cell survival) of NCI-H226 cell line; for cytotoxicity at 0.045 µM: NCI-H226, 0.045 μM; for cytotoxicity at 0.13 µM: NCI-H226, 0.13 μM; for cytotoxicity at 0.41 µM: NCI-H226, 0.41 μM; for cytotoxicity at 1.23 µM: NCI-H226, 1.23 μM; for cytotoxicity at 3.7 µM: NCI-H226, 3.7 μM; for cytotoxicity at 11.11 µM: NCI-H226, 11.11 μM; for cytotoxicity at 33.33 µM: NCI-H226, 33.33 μM; for cytotoxicity at 100 µM: NCI-H226, 100 μM
How it was run: as §1

[5] = test system: HEK 293, M468 and NCI-H226; assay: In vitro cytotoxicity by MTT assay, summary over all cell lines; type: cell-based; settings: on all cell lines
Procedure: The cancer cell line cultures of HEK 293 ([…]), BT474 (breast cancer cell line) and NCI-H226 (lung cancer) were obtained from Pasteur Institute of India, Coonoor, India, and were cultured in RPMI-1640 and 10 % heat-[…] New born calf serum with antibiotics [penicillin ([…]), streptomycin (100 μg/mL) and amphotericin B (25 μg/mL)]. The cells were maintained at 37 °C in a humidified atmosphere with 5 % CO2 and were subcultured twice a week.
The monolayer cell culture (100 μL) was trypsinized, and the cell count was adjusted to […] using medium containing 10 % new born calf serum. To each well of the 96-well microtitre plate, the diluted cell suspension (approximately 10,000 cells) (0.1 mL) was added and kept for 24 h in incubator at 37 °C in 5 % CO2 atmosphere for cell monolayer formation. After 24 h, when a partial monolayer was formed at the bottom of the well, the supernatant was flicked off, the monolayer was washed once, and different drugs, i.e. synthesized compounds (100 μL), were added to the cells in microtitre plates. The plates were then incubated at 37 °C for 3 days in 5 % CO2 atmosphere, and microscopic examination was carried out and observations recorded every 24 h. After 72 h, the sample solution in the wells was flicked off; MTT dye ([…]) was added to each well; plates were gently shaken and incubated for 4 h at 37 °C in 5 % CO2 incubator. The supernatant was removed and propanol (50 μL) was added; the plates were gently shaken to solubilize the formed formazan. The absorbance was measured using a microplate reader at a wavelength of 490 nm (Edmondson et al., [1988]; Prasad et al., [2005]; Chiruvella et al., [2008]; Chang et al., [2007]).

| SMILES | cytotoxicity at 72 h, 0.005 µM [1] | cytotoxicity at 72 h, 0.015 µM [1] | cytotoxicity at 72 h, 0.045 µM [1] | cytotoxicity at 72 h, 0.13 µM [1] | cytotoxicity at 72 h, 0.41 µM [1] | cytotoxicity at 72 h, 1.23 µM [1] | cytotoxicity at 72 h, 3.7 µM [1] | cytotoxicity at 72 h, 11.11 µM [1] | cytotoxicity at 72 h, 33.33 µM [1] | cytotoxicity at 72 h, 100 µM [1] | cytotoxicity at 0.005 µM [2] | cytotoxicity at 0.015 µM [2] | cytotoxicity at 0.045 µM [2] | cytotoxicity at 0.13 µM [2] | cytotoxicity at 0.41 µM [2] | cytotoxicity at 1.23 µM [2] | cytotoxicity at 3.7 µM [2] | cytotoxicity at 11.11 µM [2] | cytotoxicity at 33.33 µM [2] | cytotoxicity at 100 µM [2] | other results |
| --- | --- | --- | --- | --- | --- | --- | --- | --- | --- | --- | --- | --- | --- | --- | --- | --- | --- | --- | --- | --- | --- |
| CC(=O)Nc1ccc(S(=O)(=O)Nc2nnc(S(=O)(=O)NC(=O)c3cccc([N+](=O)[O-])c3)s2)cc1 [Compound 6f] | 39.3% | 42.2% | 45.4% | 47.2% | 49.1% | 51.2% | 54.2% | 58.6% | 59.3% | 62.4% | 29.1% | 30.1% | 32.1% | 33.4% | 35.8% | 37.2% | 40.6% | 42.2% | 45.3% | 50.8% | CC50 (50% cytotoxic concentration) at 72 h ([1]; HEK 293, concentration at which 50 % of the cells are dead, read-out: CTCC50 (cytotoxicity concentration)): 1.12 µM; cytotoxicity at 72 h, 0.015 µM [3]: 44.9%; cytotoxicity at 0.005 µM [4]: 41.3%; cytotoxicity at 0.045 µM [4]: 46.5%; cytotoxicity at 0.13 µM [4]: 48.3%; cytotoxicity at 0.41 µM [4]: 51.3%; cytotoxicity at 1.23 µM [4]: 54.6%; cytotoxicity at 3.7 µM [4]: 55.2%; cytotoxicity at 11.11 µM [4]: 57.1%; cytotoxicity at 33.33 µM [4]: 59.6%; cytotoxicity at 100 µM [4]: 66%; cytotoxic activity compared with all synthesized compounds [5]: more potent |
| Nc1ccc(S(=O)(=O)Nc2nnc(S(=O)(=O)NC(=O)c3cccc([N+](=O)[O-])c3)s2)cc1 [Compound 7f] | 33.2% | 35.1% | 36% | 37% | 37.5% | 38.7% | 39.5% | 40.6% | 41.2% | 43.8% | 42.4% | 45.8% | 47.2% | 50.1% | 52.2% | 54.2% | 56.7% | 58.6% | 60.3% | 64.1% | cytotoxicity at 72 h, 0.015 µM [3]: 39.3%; cytotoxicity at 0.005 µM [4]: 38.8%; cytotoxicity at 0.045 µM [4]: 40.1%; cytotoxicity at 0.13 µM [4]: 42.6%; cytotoxicity at 0.41 µM [4]: 46.1%; cytotoxicity at 1.23 µM [4]: 52.1%; cytotoxicity at 3.7 µM [4]: 56.4%; cytotoxicity at 11.11 µM [4]: 60.7%; cytotoxicity at 33.33 µM [4]: 65.8%; cytotoxicity at 100 µM [4]: 68%; CC50 ([4]; NCI-H226, concentration at which 50 % of the cells are dead, read-out: CTC50 (cytotoxicity concentration)): 1.78 µM; cytotoxic activity compared with all synthesized compounds [5]: more potent |
| CC(=O)Nc1ccc(S(=O)(=O)Nc2nnc(S(=O)(=O)NC(=O)c3ccc([N+](=O)[O-])cc3)s2)cc1 [Compound 6e] | 39.1% | 42% | 42.7% | 43.4% | 45.3% | 47.1% | 49.1% | 49.9% | 51.2% | 55% | 27.1% | 28% | 28.1% | 28.7% | 29.4% | 30.1% | 31.1% | 32.5% | 34.8% | 37.3% | cytotoxicity at 72 h, 0.015 µM [3]: 41.2%; cytotoxicity at 0.005 µM [4]: 38.8%; cytotoxicity at 0.045 µM [4]: 42.4%; cytotoxicity at 0.13 µM [4]: 45.4%; cytotoxicity at 0.41 µM [4]: 47.6%; cytotoxicity at 1.23 µM [4]: 48.6%; cytotoxicity at 3.7 µM [4]: 49.2%; cytotoxicity at 11.11 µM [4]: 50.8%; cytotoxicity at 33.33 µM [4]: 51.1%; cytotoxicity at 100 µM [4]: 54.5%; cytotoxic activity compared with all synthesized compounds [5]: moderate activity |

— publication PMC3973950, “Synthesis of 5-arylidine amino-1,3,4-thiadiazol-2-[(N-substituted benzyol)]sulphonamides endowed with potent antioxidants and anticancer activity induces growth inhibition in HEK293, BT474 and NCI-H226 cells” (Medicinal Chemistry Research, 2013)
